Assay results: US20160219829A1, “ANTI-ODOR MATERIAL FOR ANIMAL LITTERS USING PHOSPHOROTRIAMIDES IN POWDER FORM” (priority 2013, published 2016)

Biological target: T1, urease (Canavalia ensiformis, UniProt P07374)
T1 construct: purchased Sigma
Format: biochemical
Protocol: To simulate soiled anti-odor material, urea/urease solution was prepared and added to the anti-odor material.
In the same beaker, weight 50 g of demineralised water.
In a small plastic cup, weight 0.012 g of urease. Then empty the plastic cup in the beaker containing the water and rinse it with the water/urea solution.
Fill a standard volume with anti-odor material (litter+n-BTPT powder) and equalize the surface. Empty the standard volume in a plastic bowl used for analysis.
Empty slowly the urea/urease solution on the anti-odor material while making sure that no solution comes in contact with sides of the plastic bowl.
Put a cover on the plastic bowl (the cover having a hole).
Insert the tube of a Gastec pump (GV-100S) in the hole of the cover.
Note the start time of the test and take a reading of the tube every 30 minutes for the first 7 hours.
Take a reading at 24 and 48 hour.
Dosimetry tests were performed according to the methodology above. The results were taken after 48 h of testing.
Dosimetry tests were then realised to evaluate the performance of the litter samples by measuring the ammonia release (in ppm). More particularly, performances of the odor-retardant material with n-BTPT in a powder form, in melted phase or coating a particulate support could be evaluated.

T1 sequence (P07374 whole entry, looked up): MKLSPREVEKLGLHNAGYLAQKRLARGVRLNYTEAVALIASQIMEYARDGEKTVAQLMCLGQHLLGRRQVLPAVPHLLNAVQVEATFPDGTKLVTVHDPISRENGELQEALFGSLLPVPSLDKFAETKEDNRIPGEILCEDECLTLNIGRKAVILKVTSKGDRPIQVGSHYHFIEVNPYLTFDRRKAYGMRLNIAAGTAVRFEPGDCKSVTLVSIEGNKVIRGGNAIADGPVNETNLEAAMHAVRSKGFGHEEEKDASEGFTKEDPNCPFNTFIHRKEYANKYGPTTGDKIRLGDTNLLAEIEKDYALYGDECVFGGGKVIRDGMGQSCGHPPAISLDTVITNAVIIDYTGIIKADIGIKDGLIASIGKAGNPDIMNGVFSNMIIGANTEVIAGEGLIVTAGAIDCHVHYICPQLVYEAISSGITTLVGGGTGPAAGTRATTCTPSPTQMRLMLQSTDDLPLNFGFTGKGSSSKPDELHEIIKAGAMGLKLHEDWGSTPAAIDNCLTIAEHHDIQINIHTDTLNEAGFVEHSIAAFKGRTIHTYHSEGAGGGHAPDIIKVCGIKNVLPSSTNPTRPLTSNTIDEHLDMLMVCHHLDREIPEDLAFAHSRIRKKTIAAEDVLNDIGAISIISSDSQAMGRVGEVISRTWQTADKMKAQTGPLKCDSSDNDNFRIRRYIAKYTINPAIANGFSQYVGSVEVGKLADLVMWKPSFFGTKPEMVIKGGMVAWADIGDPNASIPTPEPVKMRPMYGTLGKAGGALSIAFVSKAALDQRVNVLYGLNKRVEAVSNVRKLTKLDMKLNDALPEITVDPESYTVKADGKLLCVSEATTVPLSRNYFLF

For `CCCCNP(N)(N)=S` [n-BTPT, N-(n-butyl)thiophosphoric triamide], the “Ammonia release (48 h)” value (final concentration 350 g/MT n-BTPT in litter, bentonite absorptive substrate) was 25 ppm and the “ammonia release reaches a maximum (FIG. 1)” value (n-BTPT concentration of 0.03%, grinded powder in litter, 48 h) was 62%.
